Measurements from US4510136A (priority 1983, dated 1985).

Columns and labels:
Type in all cases: in vivo
Rhizoctonia solani = test: Rice sheath blight control on sprayed rice seedlings (Example 87); details: 100 ppm spray, day before inoculation; for pest or weed control at 100 ppm: Rhizoctonia solani, 168 h
Procedure: The compounds of the previous examples were again dissolved in acetone in an amount equal to 6% of the final volume and then suspended at a concentration of 100 ppm in purified water containing 250 ppm of the surfactant TREM 014 (polyhydric alcohol esters). This suspension was sprayed to the point of run-off on rice seedlings. The following day, the plants were inoculated with a mixture of bran and the mycelium of Rhizoctonia solani, causal agent of sheath blight of rice, and incubated in a growth room for 7 days. Disease ratings were then made. Treated plants from successful treatments had little sheath blight in contrast to untreated plants which were covered with sheath blight.

Phytophthora infestans = test: whole plant or invertebrate; details: for pest or weed control at 100 ppm: Phytophthora infestans, in Solanum lycopersicum, 168 h, read-out: % Control of Tomato Late Blight, 100 ppm spray, day before inoculation; for % Control of Tomato Late Blight: 100 ppm spray, day before inoculation
Erysiphe cichoracearum = test: Cucumber powdery mildew control on sprayed cucumber seedlings (Example 80); details: 100 ppm spray, day before inoculation; for pest or weed control at 100 ppm: Golovinomyces cichoracearum, 168 h
Procedure: (§1) These suspensions were sprayed to the point of run-off, on cucumber seedlings. The following day, the plants were inoculated with a spore suspension of the fungus Erysiphe cichoracearum, causal agent of cucumber powdery mildew, and incubated in a growth room for 7 days. Disease ratings were then made. Treated plants from successful treatments had little or no powdery mildew in contrast to untreated plants which were covered with powdery mildew. Phytotoxicity in the form of growth reduction or hormonal effects was observed on some of the plants in association with disease control.

Helminthosporium maydis = test: Southern corn leaf blight control on sprayed corn seedlings (Example 83); details: 100 ppm spray, day before inoculation; for pest or weed control at 100 ppm: Bipolaris maydis, 192 h
Procedure: The compounds of the previous examples were again dissolved in acetone in an amount equal to 6% of the final volume and then suspended at a concentration of 100 ppm in purified water containing 250 ppm of the surfactant TREM 014 (polyhydric alcohol esters). These suspensions were sprayed to the point of run-off on corn seedlings. The following day, the plants were inoculated with a spore suspension of Helminthosporium maydis, causal agent of southern corn leaf blight, and incubated in a saturated humidity chamber at 20° for 24 hours and then in a growth room for an additional 7 days, when disease ratings were made. Treated plants from successful treatments had few or no lesions while the untreated plants had numerous lesions on each leaf. Phytotoxicity expressed as growth reduction was observed on some of the plants in association with disease control.

cucumber seedlings = test: Phytotoxicity on cucumber seedlings (Example 80); parameters: key: G = growth reduction; H = hormonal effects; details: 100 ppm spray
Procedure: as §1, with “The compounds of the previous example were again dissolved in acetone in an amount equal to 6% of the final volume and then suspended at a concentration of 100 ppm in purified water containing 250 ppm of the surfactant TREM 014 (polyhydric alcohol esters). These” for “These”

Venturia inaequalis = test: Apple scab control on sprayed apple seedlings (Example 82); details: 100 ppm spray, day before inoculation; for pest or weed control at 100 ppm: Venturia inaequalis
Procedure: These suspensions were sprayed to the point of run-off on apple seedlings. The following day, the plants were inoculated with a spore suspension of the fungus Venturia inaequalis, causal agent of apple scab, and incubated in a saturated humidity chamber at 20° for 24 hours and then in a growth room for an additional 10-12 days. Treated plants from successful treatments had fewer apple scab lesions when compared to untreated plants which were covered with scab lesions. Phytotoxicity expressed as growth reduction was observed on some of the plants in association with disease control.

Pyricularia oryzae = test: whole plant or invertebrate; details: for pest or weed control at 100 ppm: Pyricularia oryzae, 168 h, read-out: % Control of Rice Blast, 100 ppm spray, day before inoculation; for % Control of Rice Blast: 100 ppm spray, day before inoculation
Cercospora arachidicola = test: Peanut early leafspot control on sprayed peanut seedlings (Example 84); details: 100 ppm spray, day before inoculation; for pest or weed control at 100 ppm: Mycosphaerella arachidis, 360 h, read-out: % Control Peanut Easly Leafspot
Procedure: These suspensions were sprayed to the point of run-off on peanut seedlings. The following day, the plants were inoculated with a spore suspension of Cercospora arachidicola, causal agent of peanut early leafspot, and incubated in a saturated humidity chamber at 27° for 24 hours and then in a growth room for an additional 14 days, when disease ratings were made. Treated plants from successful treatments had few or no leafspots while the untreated plants had numerous leafspots.

[1] = system: Puccinia recondita var. tritici; test: Wheat leaf rust control on sprayed wheat seedlings (Example 79); details: 100 ppm spray, day before inoculation; for pest or weed control at 100 ppm: Puccinia recondita, 168 h
Procedure: The compounds of this invention were dissolved in acetone in an amount equal to 6% of the final volume and then suspended at a concentration of 100 ppm in purified water containing 250 ppm of the surfactant TREM 014 (polyhydric alcohol esters). These suspensions were sprayed to the point of run-off on wheat seedlings. The following day, the plants were inoculated with a spore suspension of Puccinia recondita var. tritici, causal agent of wheat leaf rust, and incubated in a saturated humidity chamber at 20° for 24 hours and then in a growth room for an additional 7 days, when disease ratings were made. Treated plants from successful treatments had few or no rust pustules while the untreated plants had numerous rust pustules on each leaf.

Compound	pest or weed control at 100 ppm (Rhizoctonia solani)	pest or weed control at 100 ppm (Phytophthora infestans)	pest or weed control at 100 ppm (Erysiphe cichoracearum)	pest or weed control at 100 ppm (Helminthosporium maydis)	Phytotoxicity on cucumber (cucumber seedlings)	pest or weed control at 100 ppm (Venturia inaequalis)	pest or weed control at 100 ppm (Pyricularia oryzae)	pest or weed control at 100 ppm (Cercospora arachidicola)	pest or weed control at 100 ppm [1]	% Control of Rice Sheath Blight (Rhizoctonia solani)	% Control of Tomato Late Blight (Phytophthora infestans)	% Control Cucumber Powdery Mildew (Erysiphe cichoracearum)	% Control of Southern Corn Leaf Blight (Helminthosporium maydis)	% Control Apple Scab (Venturia inaequalis)	% Control of Rice Blast (Pyricularia oryzae)	% Control Peanut Easly Leafspot (Cercospora arachidicola)	% Control Wheat Rust [1]
C[Si](Cn1cncn1)(c1ccc(Br)cc1)c1ccc(Br)cc1 [[bis(4-Bromophenyl)]methyl(1H-1,2,4-triazol-1-ylmethyl)silane]	0%	0%	80%	0%	G	80%	90%	100%	0%	–	–	–	–	–	–	–	–
COc1ccc([Si](C)(Cn2cncn2)c2ccc(OC)cc2)cc1 [[bis(4-Methoxyphenyl)]methyl(1H-1,2,4-triazol-1-ylmethyl)silane]	80%	0%	0%	90%	–	0%	0%	30%	0%	–	–	–	–	–	–	–	–
C[Si](Cn1cncn1)(c1ccc(Cl)cc1Cl)c1ccc(Cl)cc1Cl [bis(2,4-Dichlorophenyl)(methyl)(1H-1,2,4-triazol-1-ylmethyl)silane]	0%	0%	100%	80%	G	100%	0%	100%	100%	–	–	–	–	–	–	–	–
O[Si](Cn1cnnc1)(c1ccc(Cl)cc1)c1ccc(Cl)cc1 [bis(4-Chlorophenyl)hydroxy(4H-1,2,4-triazol-4-ylmethyl)silane]	0%	0%	100%	80%	–	100%	0%	100%	90%	–	–	–	–	–	–	–	–
Clc1ccc([Si](Cn2cncn2)(c2ccc(Cl)cc2)c2ccc(Cl)cc2)cc1 [tris(4-Chlorophenyl)(1H-1,2,4-triazol-1-ylmethyl)silane]	0%	0%	100%	0%	–	0%	0%	0%	40%	–	–	–	–	–	–	–	–
Fc1ccc([Si](Cn2cncn2)(c2ccc(F)cc2)c2ccc(F)cc2)cc1 [tris(4-Fluorophenyl)(1H-1,2,4-triazol-1-ylmethyl)silane]	0%	0%	0%	0%	–	60%	0%	90%	90%	–	–	–	–	–	–	–	–
(1,1'-Biphenyl-4-yl)dimethyl(1H-1,2,4-triazol-1-ylmethyl)silane, 1:1 complex with zinc (II) chloride	–	–	–	–	–	–	–	–	–	90%	90%	80%	90%	100%	100%	100%	100%
(1,1'-Biphenyl-4-yl)dimethyl(1H-1,2,4-triazol-1-ylmethyl)silane, 2:1 complex with cupric chloride	–	–	–	–	–	–	–	–	–	80%	0%	100%	80%	100%	0%	100%	100%
